# Laboratory results: patent publication US20120308993A1 (priority 2009, published 2012)
# “And” between values parts separate entries of the source, which are not always exact repeats. Equal values may be shown once.
# Tests used:
# Influenza A (H1N1) 2009 [1] = details: in vivo
# Influenza A (H1N1) 2009 [2] = details: in vivo; remark: listed apart in the source
structure (smiles),measurement,setting,value
"CCOC(=O)C1=C[C@@H](OC(CC)CC)[C@H](NC(C)=O)[C@@H](N)C1 [Oseltamivir, oseltamivir]","fever settled, day of illness",Influenza A (H1N1) 2009 [1],5
same,outcome of close contacts given oseltamivir prophylaxis,Influenza A (H1N1) 2009 [1],remained well
same,RT-PCR,Influenza A (H1N1) 2009 [2],positive
same,ct value,Influenza A (H1N1) 2009 [2],24 and 32 and 35
